16 molecules from ChEMBL document CHEMBL1201862, “PubChem BioAssay data set” (2004) can be followed below.

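Step 1: Grow cells in 96-well plates. Step 2: Expose to compound for 48 hours at 5 concentrations. Step 3: Interpolate endpoints linearly; if unreached, use highest concentration. GI50 marks 50% less growth.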 Activity calls are given as the source filed them. No stated cut-off is given here; in the data, active = GI50 up to about 1.1 µM and inactive = higher.

Some test systems named below: HOP-18; LXFL 529; XF498; M19-MEL; RXF 631; DLD-1; DMS-273; DMS-114; SNB-78.
Holding throughout (assay): NCI tumour cell line growth inhibition, 48 h

For `O=C1c2ccccc2C(=O)N1CCCOCc1cnc(O)nc1O`, the GI50 with HOP-18, in the assay with LXFL 529, with XF498, with M19-MEL, in the assay with RXF 631 and in the assay with DLD-1 was > 100 µM (inactive) in each case. Besides, the GI50 in the assay on DMS-273 and with DMS-114 was > 100 µM (inactive) in each case.
In the case of `O=C1C(=O)N(c2ccc(Cl)cc2Cl)C(=O)C(=O)C1c1nc2ccccc2o1`, the GI50 in the assay with HOP-18, in the assay on LXFL 529, with XF498, with M19-MEL, in the assay with RXF 631 and in the assay with DLD-1 was > 100 µM (inactive) in each case. The GI50 in the assay with DMS-273 and with SNB-78 was > 100 µM (inactive) each time.
As for `CC1=NN(c2ccccc2)C(=O)C1/N=N/c1ccc(Br)c(C)c1` (configuration not stated), the GI50 was 0.0562 µM (active) in the assay with HOP-18; > 100 µM (inactive) with LXFL 529; > 100 µM (inactive) with XF498; > 100 µM (inactive) in the assay on M19-MEL; > 100 µM (inactive) in the assay with RXF 631; > 100 µM (inactive) in the assay with DLD-1. Also, the GI50 with DMS-273, in the assay on DMS-114 and in the assay with SNB-78 was > 100 µM (inactive) throughout.
In the case of `CCOC(=O)c1cnc2c(ccc3ncccc32)c1OCC`, the GI50 is > 100 µM (inactive) in the assay with HOP-18; > 100 µM (inactive) in the assay on LXFL 529; > 100 µM (inactive) in the assay with M19-MEL; 84.5 µM (inactive) with RXF 631; 77.3 µM (inactive) in the assay on DLD-1; > 100 µM (inactive) with DMS-273. Further, the GI50 with DMS-114 and with SNB-78 was > 100 µM (inactive) in each case.
In the case of `CN(C)CCN1N=Nc2cccc3cccc1c23`, the GI50 in the assay on HOP-18 was > 100 µM (inactive); in the assay on LXFL 529, > 87.3 µM (inactive); with XF498, > 89.5 µM (inactive); in the assay on RXF 631, > 100 µM (inactive); with DLD-1, > 80.7 µM (inactive); with DMS-273, 24.5 µM (inactive). Moreover, in the assay with DMS-114, the GI50 was > 74.8 µM (inactive).
As to `COc1cc(C)c(O)c(C(=O)O)c1`, the GI50 with HOP-18, in the assay on LXFL 529, in the assay with XF498, with M19-MEL, with DLD-1 and in the assay with DMS-273 was > 100 µM (inactive) throughout. For the same molecule, the GI50 in the assay on DMS-114 and in the assay with SNB-78 was > 100 µM (inactive) in each case.
With `CCCC1C(=O)CCc2c(OC)ccc(OC)c21` (configuration not stated), the GI50 in the assay on HOP-18 is 2.61 µM (inactive); in the assay with LXFL 529 it was > 100 µM (inactive); with XF498, > 100 µM (inactive); in the assay with M19-MEL, > 100 µM (inactive); in the assay with DLD-1, > 100 µM (inactive); in the assay on DMS-273, > 100 µM (inactive). The GI50 is 48.2 µM (inactive) with DMS-114 and > 100 µM (inactive) in the assay on SNB-78.
With `CC(C)(C)C1CCC2c3c([nH]c4ncccc34)C3C(=O)N(c4ccccc4)C(=O)C3C2C1` (configuration not stated), the GI50 in the assay on HOP-18, with LXFL 529, in the assay on XF498, in the assay on M19-MEL, in the assay with DLD-1 and with DMS-273 was > 100 µM (inactive) throughout. Also, the results for the GI50 with DMS-114 and with SNB-78 were 80 µM (inactive) and 40.4 µM (inactive), respectively.
On to `Cc1cc(C)nc(NS(=O)(=O)c2ccc(NC(=O)c3cccc4c(=O)c5ccccc5[nH]c34)cc2)n1`, for which the GI50 in the assay with HOP-18 is 18.5 µM (inactive); in the assay on LXFL 529, 14.3 µM (inactive); with XF498, 13.5 µM (inactive); in the assay on RXF 631 it was 60 µM (inactive); with DLD-1, 20.7 µM (inactive); in the assay with DMS-273, 22.1 µM (inactive). Further, the GI50 is 18.4 µM (inactive) with DMS-114 and 21.3 µM (inactive) with SNB-78.
For the molecule `CC(C)(C)NC(=O)C12C3C4C1C1C2C3C41I` (configuration not stated), the GI50 in the assay with LXFL 529, in the assay on XF498, in the assay on M19-MEL, with RXF 631, in the assay on DMS-273 and with DMS-114 was > 100 µM (inactive) throughout. Further, the GI50 in the assay on SNB-78 was > 100 µM (inactive).
Take `COC(=O)c1cc(-c2ccc(OC)c(OC)c2)oc1-c1ccc(OC)c(OC)c1`: the GI50 in the assay with HOP-18 was 29.2 µM (inactive); in the assay on LXFL 529, 27.7 µM (inactive); in the assay with XF498, 37.3 µM (inactive); in the assay on M19-MEL it was 41.3 µM (inactive); in the assay with RXF 631 it was 30.5 µM (inactive); with DLD-1 it was 30.1 µM (inactive). The GI50 was 67.1 µM (inactive) in the assay on DMS-273, 31.9 µM (inactive) with DMS-114 and 31.7 µM (inactive) in the assay on SNB-78.
In the case of `CSc1ccc(-c2cn3ccsc3n2)c(O)c1`, the GI50 with HOP-18 was > 76.6 µM (inactive); in the assay with LXFL 529 it was > 54.5 µM (inactive); in the assay with XF498, 30.2 µM (inactive); in the assay on RXF 631, > 70.8 µM (inactive); with DLD-1, 40.4 µM (inactive); in the assay with DMS-273, 32.8 µM (inactive). Further, the GI50 was 26.1 µM (inactive) in the assay on DMS-114 and 42.3 µM (inactive) in the assay with SNB-78.
Consider `CCC(O)CCCCCCCCCCCCCCC(=O)O` (configuration not stated), for which the GI50 in the assay with HOP-18 is > 100 µM (inactive); in the assay on LXFL 529 it was > 100 µM (inactive); in the assay with XF498, > 100 µM (inactive); in the assay on M19-MEL, > 100 µM (inactive); in the assay on RXF 631, 78.3 µM (inactive); with DLD-1, > 100 µM (inactive). The GI50 with DMS-273, in the assay on DMS-114 and in the assay on SNB-78 was > 100 µM (inactive) each time.
For `COc1ccc([C@@H]2C[C@@H]3C(=O)OC(=O)[C@@H]3c3c2c2ccccc2n3C)cc1`, the GI50 with LXFL 529, in the assay on XF498, with M19-MEL, in the assay on RXF 631, in the assay with DLD-1 and with DMS-273 was > 100 µM (inactive) throughout. Also, the GI50 with DMS-114 was > 100 µM (inactive).
Take `COC(=O)C1=CC(=O)C(C(=O)Nc2ccc(OC)cc2)C(c2ccccc2)O1` (configuration not stated): the GI50 is 25.9 µM (inactive) with LXFL 529; 37.2 µM (inactive) in the assay with RXF 631; > 75.5 µM (inactive) with DLD-1; 37.5 µM (inactive) in the assay with DMS-273; 29.7 µM (inactive) in the assay on DMS-114; 37.9 µM (inactive) in the assay on SNB-78.
As to `CCCCCCCCCCCCCC/C(C(=O)OC)=C(/O)C(=O)OCC`, the GI50 is 27.6 µM (inactive) in the assay on HOP-18; 39.3 µM (inactive) in the assay with LXFL 529; 20.4 µM (inactive) with XF498; 54.8 µM (inactive) in the assay on M19-MEL; 33 µM (inactive) in the assay with RXF 631; 30.5 µM (inactive) in the assay on DLD-1. The GI50 is 94 µM (inactive) in the assay on DMS-273, > 100 µM (inactive) in the assay on DMS-114 and 64.1 µM (inactive) in the assay on SNB-78.
